Source: paper PMC6934184, “Selective DNA-PKcs inhibition extends the therapeutic index of localized radiotherapy and chemotherapy” (The Journal of Clinical Investigation, 2019)

Biological target: T1, CDK9 (Inactive) (Homo sapiens, UniProt P50750)
T1 construct: purchased Thermo Fisher Scientific (Life Technologies) SelectScreen
Experiment: SelectScreen LanthaScreen
Assay type: binding
Conditions: read-out: % displacement
Summary of the method: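 SelectScreen broad panel; activity (Z'LYTE, Adapta) plus binding formats. ATP: Km app for CSF1R Z'LYTE; 10 for CAMK1 Adapta. Readout = % per kinase.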

T1 sequence (P50750 whole entry): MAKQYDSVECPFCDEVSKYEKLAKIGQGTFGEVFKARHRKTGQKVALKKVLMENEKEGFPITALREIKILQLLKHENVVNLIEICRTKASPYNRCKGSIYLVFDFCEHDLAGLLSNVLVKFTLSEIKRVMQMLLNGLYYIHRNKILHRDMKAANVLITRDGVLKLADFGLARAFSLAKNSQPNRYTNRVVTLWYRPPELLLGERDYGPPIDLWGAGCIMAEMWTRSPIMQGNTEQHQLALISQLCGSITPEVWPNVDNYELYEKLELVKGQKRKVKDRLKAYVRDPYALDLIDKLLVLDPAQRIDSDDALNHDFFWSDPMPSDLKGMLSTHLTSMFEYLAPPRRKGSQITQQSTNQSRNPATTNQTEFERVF

Work on `CN(C(=O)CN1CCOCC1)c1ccc2sc3c(-c4cccc5c(=O)cc(N6CC7CCC(C6)O7)oc45)cccc3c2c1` [NU5455] yielded an inhibition at 1 µM of 9%.
